Source: ChEMBL document CHEMBL1201862, “PubChem BioAssay data set” (2004)
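Each compound was tested at five concentrations against cells in 96-well plates for 48 hours. GI50: concentration for 50% inhibition of growth.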 Active and inactive are the calls of the source. No stated cut-off is given here; in the data, active = GI50 up to about 1.1 µM and inactive = higher.

Tests used:
Assay in all cases: growth of human tumour cells (NCI), 48 h
HOP-62 = tested on: HOP-62
OVCAR-5 = tested on: OVCAR-5
CCRF-CEM = tested on: CCRF-CEM
HCT-15 = tested on: HCT-15
SR = tested on: SR
DU-145 = tested on: DU-145
SK-MEL-5 = tested on: SK-MEL-5
UO-31 = tested on: UO-31
NCI-H23 = tested on: NCI-H23
OVCAR-8 = tested on: OVCAR-8
Hs-578T = tested on: Hs-578T
LOX IMVI = tested on: LOX IMVI
IGROV-1 = tested on: IGROV-1
RXF 393 = tested on: RXF 393
SN12C = tested on: SN12C
SW-620 = tested on: SW-620
SNB-75 = tested on: SNB-75
RPMI-8226 = tested on: RPMI-8226
HT-29 = tested on: HT-29
A498 = tested on: A498

Row | Compound | GI50 (HOP-62) | GI50 (OVCAR-5) | GI50 (CCRF-CEM) | GI50 (HCT-15) [µM] | GI50 (SR) | GI50 (DU-145) | GI50 (SK-MEL-5) | GI50 (UO-31) | GI50 (NCI-H23) | GI50 (OVCAR-8) | GI50 (Hs-578T) | GI50 (LOX IMVI) | GI50 (IGROV-1) | GI50 (RXF 393) | GI50 (SN12C) | GI50 (SW-620) | GI50 (SNB-75) | GI50 (RPMI-8226) | GI50 (HT-29) | GI50 (A498)
1 | CC1(C)CN=C(Nc2cccc(C(F)(F)F)c2)S1 | > 100 µM (inactive) | > 100 µM (inactive) | > 100 µM (inactive) | > 100 | 40.2 µM (inactive) | > 100 µM (inactive) | > 100 µM (inactive) | > 100 µM (inactive) | > 100 µM (inactive) | > 100 µM (inactive) | > 100 µM (inactive) | > 100 µM (inactive) | > 100 µM (inactive) | > 100 µM (inactive) | > 100 µM (inactive) | > 100 µM (inactive) | > 100 µM (inactive) | > 100 µM (inactive) | > 100 µM (inactive) | 
2 | CCOC(=O)[C@@]1(C)CC(O)C(=O)N1C (stereo partly drawn) | > 100 µM (inactive) | > 100 µM (inactive) | > 100 µM (inactive) | > 100 | > 100 µM (inactive) | > 100 µM (inactive) | > 100 µM (inactive) | > 100 µM (inactive) | > 100 µM (inactive) | > 100 µM (inactive) | > 100 µM (inactive) | > 100 µM (inactive) | > 100 µM (inactive) | > 100 µM (inactive) | > 100 µM (inactive) | > 100 µM (inactive) |  | > 100 µM (inactive) | > 100 µM (inactive) | 
3 | CO/N=C1\CCC2(O)C3Cc4ccc(O)c5c4C2(CCN3CC2CC2)[C@H]1O5 (stereo partly drawn) | > 100 µM (inactive) | > 100 µM (inactive) | > 100 µM (inactive) | > 100 | > 100 µM (inactive) | > 100 µM (inactive) | > 100 µM (inactive) | > 100 µM (inactive) | > 100 µM (inactive) | > 100 µM (inactive) | > 100 µM (inactive) | > 100 µM (inactive) | > 100 µM (inactive) |  | > 100 µM (inactive) | > 100 µM (inactive) |  | > 100 µM (inactive) | > 100 µM (inactive) | > 100 µM (inactive)
4 | O=C1c2cc([N+](=O)[O-])cnc2S(=O)(=O)N1c1ccc(Oc2ccccc2)cc1 | > 100 µM (inactive) | > 100 µM (inactive) | 39 µM (inactive) | > 100 | 57 µM (inactive) | > 100 µM (inactive) |  | > 100 µM (inactive) | > 100 µM (inactive) | > 100 µM (inactive) | > 100 µM (inactive) | > 100 µM (inactive) | > 100 µM (inactive) | 34.2 µM (inactive) | > 100 µM (inactive) | > 100 µM (inactive) | > 100 µM (inactive) | > 100 µM (inactive) |  | 
5 | O=C(OCCN=c1c2ccccc2ccc2ccccc12)c1ccccc1 | 64.6 µM (inactive) | > 100 µM (inactive) | 40.8 µM (inactive) | 63.4 | > 100 µM (inactive) | > 100 µM (inactive) | 45 µM (inactive) | 56 µM (inactive) | > 100 µM (inactive) | 78.7 µM (inactive) | 40.3 µM (inactive) | 72.1 µM (inactive) | 72.1 µM (inactive) | > 100 µM (inactive) | 64.1 µM (inactive) | 74 µM (inactive) | > 100 µM (inactive) | > 100 µM (inactive) | 64 µM (inactive) | 
6 | COc1cc(C2SCC(=O)N2c2ccc(NC(C)=O)cc2)cc(OC)c1OC (stereo not drawn) |  | > 100 µM (inactive) | 25.9 µM (inactive) | 94.2 | 31.2 µM (inactive) | > 100 µM (inactive) | > 100 µM (inactive) | > 100 µM (inactive) | > 100 µM (inactive) | 77.1 µM (inactive) | > 100 µM (inactive) | > 100 µM (inactive) | > 100 µM (inactive) |  | 81.5 µM (inactive) | > 100 µM (inactive) |  | > 100 µM (inactive) | 90.4 µM (inactive) | > 100 µM (inactive)
